Experimental data taken from US20200031811A1, “SUBSTITUTED MONO- AND POLYAZANAPHTHALENE DERIVATIVES AND THEIR USE” (Basilea Pharmaceutica International AG, priority 2015, published 2020).
pIC50: −log10 of the molar value. Structures can show the parent of a compound that is named as a salt.

Tests used:
MNK1 = target: T1, MNK1 (Homo sapiens, UniProt Q9BUB5); assay: MNK inhibition assay (Z-Lyte kinase assay, Ser/Thr 7 peptide); assay type: biochemical; conditions: for pIC50: recombinant GST-MNK1, 3 hours at 31° C.; for inhibition at 1 µM / inhibition at 10 µM: read-out: Inhibition of MNK1 activity at indicated concentration
T1 construct: purchased Life Technologies or Carna Biosciences PV6023 or 02-145; host or cells: baculovirus infected insect cells
Source text: For the measurement of the activity of the MNK1 kinase the Z-Lyte kinase assay system was used. The kinase activity of MNK1 can be quantified with the Z-Lyte kinase assay kit Ser/Thr 7 peptide (Life Technologies PV3180). The kit was utilized according to the instructions of the provider. A recombinant GST-MNK1 fusion protein produced in and purified from baculovirus infected insect cells was used as enzyme source (GST-MNK1 Life Technologies PV6023 or Carna Biosciences 02-145). It was verified that both sources of the MNK1 enzyme gave similar IC50 values with several compounds. The MNK1 enzyme assay was performed in 384 well round bottom black microtiter plates (Corning 3676). The kinase reaction was performed for 3 hours at 31° C. As instructed by the provider of the kit the amount of enzyme was chosen such that ˜30% of the substrate peptide was phosphorylated in control wells containing buffer only. The MNK1 inhibiting activity of compounds was tested by adding the compounds to the kinase reaction at a concentration of 10000, 5000, 2000, 1000, 500, 200, 100, 50 nM. Compounds with strong MNK1 inhibition were tested at 20, 10, 5, 2, 1 and 0.5 nM in addition. Each compound concentration was tested at least in duplicate. The % phosphorylation of the substrate peptide at each compound concentration was calculated as described in the assay manual. The fluorescent signals were recordes on Biotek Cytation 3 microplate reader. The IC50, the concentration that reduced substrate phosphorylation by 50% if compared to buffer only wells, was calculated with the Grafit 6 software (Erythacus software).

[1] = tested on: human pancreatic cancer cell line MiaPaCa2 (ATCC CRL-1420); assay: Cell growth assay (CellTiterGlo, 72 hours); assay type: cell-based; conditions: for pIC50: MIA PaCa-2, MiaPaCa2 cells, 72 hours, read-out: IC50 MiaPaCa; for inhibition at 100 µM: MIA PaCa-2, at 100 μM; for inhibition at 100 µM / inhibition at 50 µM: read-out: Inhibition of MiaPaCa growth at indicated concentration; for inhibition at 50 µM: MIA PaCa-2, at 50 μM
Method: The inhibition of cell growth by the compounds was tested by exposing the human pancreatic cancer cell line MiaPaCa2 (ATCC CRL-1420) to the compounds. The assay was performed in 384 well clear bottom white microtiter plates (Greiner #781098). Each well was seeded with 10^3 cells in 20 μl of Dulbecco's modified Eagle's medium (Sigma D6796) supplied with 10% fetal calf scrum (Sigma F7524), 2.5% horse serum (Sigma H0146), 1% Penicillin-Streptomycin (Sigma P0781), 1% MEM nonessential amino acid solution 100× (Sigma M71459) and 1% 200 mM L-Glutamine (Sigma G7513) culture medium. After overnight incubation at 37° C. in 5% CO2 the compounds were added in the following concentrations: 100, 50, 20, 10, 5, 2, 1, 0.5, 0.2 and 0.1 μM. Each compound concentration was tested in quadruplicate. The incubation was then continued for 72 hours. After 72 hours the growth of the cells was assessed by the addition of the CellTiterGlo reagent (Promega G9242) as instructed by the provider. The luminescent signal was recorded on a SpectraMax M2 microplate reader. The signal obtained in wells containing cells cultivated in the absence of compound was set to 100% growth after subtracting the signal obtained in medium only wells. The % growth in each well was calculated by subtracting the medium only value and dividing through the 100% growth value. The IC50 for cell growth, the concentration of compound at which cell growth was reduced to 50%, was calculated with the GraFit6 software (Erythacus software).

T1 sequence (Q9BUB5 whole entry): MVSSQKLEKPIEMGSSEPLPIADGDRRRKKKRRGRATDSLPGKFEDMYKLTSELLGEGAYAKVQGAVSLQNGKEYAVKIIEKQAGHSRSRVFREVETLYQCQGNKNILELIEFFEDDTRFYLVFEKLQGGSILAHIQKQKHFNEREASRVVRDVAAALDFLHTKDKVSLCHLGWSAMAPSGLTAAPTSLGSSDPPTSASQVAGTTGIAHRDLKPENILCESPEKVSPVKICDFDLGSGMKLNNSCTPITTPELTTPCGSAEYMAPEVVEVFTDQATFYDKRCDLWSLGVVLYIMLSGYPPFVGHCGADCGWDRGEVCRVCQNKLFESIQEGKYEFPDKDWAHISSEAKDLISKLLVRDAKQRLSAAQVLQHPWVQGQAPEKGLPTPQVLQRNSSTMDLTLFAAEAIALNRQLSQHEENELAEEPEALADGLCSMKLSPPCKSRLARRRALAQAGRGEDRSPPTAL

SMILES	pIC50 (MNK1)	pIC50 [1]	also measured
N[C@H]1CC[C@H](CNc2ccc3cncc(-c4cc5ccccc5o4)c3c2)CC1 [Example 230, trans-N-[(4-Aminocyclohexyl)methyl]-4-(benzofuran-2-yl) isoquinolin-6-amine]	5.66	5.22	
Nc1cc(-c2cncc3ccc(CN4CCC(N)CC4)cc23)ccn1 [Example 16]	5.72		inhibition at 100 µM [1]: 67%
NC1CCN(Cc2ccc3cncc(-c4ccc(C(=O)O)cc4)c3c2)CC1 [Example 29, 4-[6-[(4-Amino-1-piperidyl)methyl]-4-isoquinolyl]benzoic acid]			inhibition at 1 µM (MNK1): 43%
c1ccc(-c2cnnc3ccc(CN4CCNCC4)cc23)cc1 [Example 83, 4-Phenyl-6-(piperazin-1-ylmethyl)cinnoline]			inhibition at 10 µM (MNK1): 54%; inhibition at 100 µM [1]: 31%
COc1ccc(-c2cncc3ccc(CN4CCC(N)CC4)cc23)cc1OC [Example 202]	5.90	4.71	
Nc1ncc(-c2cc(Cl)cc(Cl)c2)c2cc(CN3CCC(N)CC3)ccc12 [Example 218]	5.24	5.61	
Nc1ccc(Nc2ccc3cncc(-c4cc5ccccc5o4)c3c2)cc1 [Example 132, N1-[4-(Benzofuran-2-yl)-6-isoquinolyl]benzene-1,4-diamine]	5.51		inhibition at 100 µM [1]: 53%
Nc1ncc(-c2cc3ccccc3o2)c2cc(NCc3ccncc3)ccc12 [Example 233, 4-(Benzofuran-2-yl)-N6-(4-pyridylmethyl)isoquinoline-1,6-diamine]	5.37	5.17	
Nc1ncc2ccc(CN3CCNCC3)cc2c1-c1cc2ccccc2o1 [Example 260, 4-(Benzofuran-2-yl)-6-(piperazin-1-ylmethyl)isoquinolin-3-amine]	5.80	4.76	
NC1CCN(Cc2ccc3cncc(-c4cccnc4)c3c2)CC1 [Example 14]			inhibition at 1 µM (MNK1): 34%; inhibition at 50 µM [1]: 52%
CN(C)CCNc1ccc2cncc(-c3cc4ccccc4o3)c2c1 [Example 99, N-[4-(Benzofuran-2-yl)-6-isoquinolyl]-N′,N′-dimethyl-ethane-1,2-diamine]		5.36	inhibition at 1 µM (MNK1): 60%
NC1CCN(Cc2ccc3cncc(-c4ccccn4)c3c2)CC1 [Example 15]	5.40		
N[C@H]1CC[C@@H](Nc2ccc3cncc(-c4cc5ccccc5o4)c3c2)CC1 [Example 81, N4-[4-(Benzofuran-2-yl)-6-isoquinolyl]cyclohexane-1,4-diamine]		5.66	
NC1CCN(Cc2ccc3cncc(-c4cccc(C(=O)O)c4)c3c2)CC1 [Example 30]			inhibition at 1 µM (MNK1): 34%
Clc1cc(NCc2ccc3cncc(-c4cc5ccccc5o4)c3c2)ccn1 [Example 62]	5.67		
NC(=O)Nc1cccc(-c2cncc3ccc(CN4CCC(N)CC4)cc23)c1 [Example 34]	5.96		
c1ccc2oc(-c3cncc4ccc(NC5CCNCC5)cc34)cc2c1 [Example 82]		5.66	
N#Cc1ccccc1-c1cncc2ccc(CN3CCC(N)CC3)cc12 [Example 8]			inhibition at 10 µM (MNK1): 95%
O=c1[nH]cc(-c2cc3ccccc3o2)c2cc(NCc3ccncc3)ccc12 [Example 89, 4-(Benzofuran-2-yl)-6-(4-pyridylmethylamino)-2H-isoquinolin-1-one]			inhibition at 10 µM (MNK1): 35%

Continued, in another order:

pIC50 (MNK1)	pIC50 [1]	SMILES	also measured
6.74	5.28	Nc1ncc(-c2cccs2)c2cc(CN3CCC(N)CC3)ccc12 [Example 290]	
6.53	5.55	CCOc1cc(CN2CCC(N)CC2)cc2c(-c3cc4ccccc4o3)cncc12 [Example 281, 1-[[4-(Benzofuran-2-yl)-8-ethoxy-6-isoquinolyl]methyl]piperidin-4-amine]	
6.63	5.04	NC1CCN(Cc2cc(Cl)c3cncc(-c4ccc(F)c(F)c4)c3c2)CC1 [Example 238]	
6.37		NC1CCN(Cc2ccc3cncc(-c4ccc(NC(=O)NC5CC5)cc4)c3c2)CC1 [Example 118]	inhibition at 100 µM [1]: 48%
7.17		Fc1cc(NCc2ccc3cncc(-c4cc5ccccc5o4)c3c2)ccn1 [Example 63]	
8.22	5.24	Nc1ncc2ccc(CNc3ccncc3)cc2c1-c1cc2ccccc2o1 [Example 165, 4-(Benzofuran-2-yl)-6-[(4-pyridylamino)methyl]isoquinolin-3-amine]	
6.32	5.30	NC1CCN(Cc2ccc3cncc(-c4nc5ccccc5o4)c3c2)CC1 [Example 228]	
7.30	4.87	Nc1cc[n+](Cc2ccc3cncc(-c4cc5ccccc5o4)c3c2)cc1C(F)(F)F [Example 58]	
7.18	5.89	COc1cc(CN2CCC(N)CC2)cc2c(-c3ccccc3)cnc(N)c12 [Example 259]	
6.17	4.73	Cc1cc(NC(=O)Nc2ccc(-c3cncc4ccc(CN5CCC(N)CC5)cc34)cc2)on1 [Example 120, 1-[4-[6-[(4-Amino-1-piperidyl)methyl]-4-isoquinolyl]phenyl]-3-(3-methylisoxazol-5-yl)urea]	
6.45	5.30	Nc1ncc(-c2ccc(F)c(F)c2)c2cc(CN3CCC(N)CC3)ccc12 [Example 221]	
7.08	4.80	c1ccc2oc(-c3cncc4ccc(CNc5ccncn5)cc34)cc2c1 [Example 128]	
7.55		Nc1cc[n+](Cc2ccc3cncc(-c4ccc(O)cc4)c3c2)cc1 [Example 122]	inhibition at 100 µM [1]: 37%
6.07	4.69	Nc1cccc(-c2cncc3ccc(CN4CCC(N)CC4)cc23)c1 [Example 3]	
6.88	5.10	Nc1cc[n+](Cc2ccc3cncc(-c4ccc(Cl)cc4)c3c2)cc1 [Example 123]	
6.81	5.30	NC1CCN(Cc2ccc3cncc(-c4cccs4)c3c2)CC1 [Example 178]	
6.05	5.51	CC(C)(C)c1cc(NC(=O)Nc2ccc(-c3cncc4ccc(CN5CCC(N)CC5)cc34)cc2)no1 [Example 116]	
6.20		Cn1cc(-c2cncc3ccc(CN4CCC(N)CC4)cc23)cn1 [Example 203]	inhibition at 50 µM [1]: 48%
6.74	4.72	Cn1nccc1NCc1ccc2cncc(-c3cc4ccccc4o3)c2c1 [Example 101]	
7.62		c1ccc2oc(-c3cncc4ccc(CNc5ccnnc5)cc34)cc2c1 [Example 131, N-[[4-(benzofuran-2-yl)-6-isoquinolyl]methyl]pyridazin-4-amine]	
6.80		COc1cc(NCc2ccc3cncc(-c4cc5ccccc5o4)c3c2)ccn1 [Example 65]	
7.24		Nc1cc[n+](Cc2ccc3cnc(N)c(-c4cc5ccccc5o4)c3c2)cc1 [Example 166, 6-[(4-Aminopyridin-1-ium-1-yl)methyl]-4-(benzofuran-2-yl)isoquinolin-3-amine trifluoroacetate]	
7.03		Nc1ncc(-c2cc3ccccc3o2)c2cc(O[C@H]3CC[C@H](N)CC3)cc(Cl)c12 [Example 320]	
6.87		c1cncc(NCc2ccc3cncc(-c4cc5ccccc5o4)c3c2)c1 [Example 60, N-[[4-(Benzofuran-2-yl)-6-isoquinolyl]methyl]pyridin-3-amine]	
6.06		NC(=O)Nc1ccc(-c2cncc3ccc(CN4CCC(N)CC4)cc23)cc1 [Example 33, [4-[6-[(4-Amino-1-piperidyl)methyl]-4-isoquinolyl]phenyl]urea]	
5.97		O=c1[nH]cc(-c2ccccc2)c2cc(NCc3ccncc3)ccc12 [Example 90]	
6.30		Oc1ccc(-c2cncc3ccc(CNC4CCCNC4)cc23)cc1 (stereo not drawn) [Example 39]	
6.77		N[C@H]1CC[C@H](Nc2ccc3c(=O)[nH]cc(-c4ccccc4)c3c2)CC1 [Example 88]	
